For assay [1], the system named is senescent IMR90 cells. Briefly: CCK8 cell viability of DNA damage-induced senescent IMR90 cells. The assay is classed as cell-based, human. As to conditions: IMR90, 10 days after bleomycin, doxorubicin, ionizing radiation or etoposide. The protocol: Fibroblasts from patients with HGPS were obtained from The Progeria Research Foundation Cell and Tissue Bank (http://www.progeriaresearch.org). The following fibroblasts were used: HGADFN003, HGADFN167, HGMDFN090 and HGFDFN168. Human dermal fibroblasts (GM00038 and AG09602) were obtained from Coriell Cell Repository (https://catalog.coriell.org). These cells were characterized by DNA fingerprinting and isozyme detection and were tested by a MycoBlue Mycoplasma Detector (Vazyme Biotech) to exclude mycoplasma contamination before the experiments. […] HGADFN003, HGADFN167, HGMDFN090, HGFDFN168, GM00038 and AG09602 were cultured in DMEM medium with 15% (v/v) fetal bovine serum (VivaCell). […] For bleomycin-induced senescence, IMR90 cells were incubated with the culture medium containing 20 μg ml^–1 Bleomycin (Selleck, catalog no. S1214) for 2 h and analyzed 10 days later, or as otherwise indicated. For doxorubicin-induced senescence, IMR90 cells were treated twice with 100 nM Doxorubicin (Selleck, catalog no. S1208) with a 2 day interval and analyzed 10 days later, or as otherwise indicated. For ionizing radiation (IR)-induced senescence, IMR90 cells were exposed to 10 Gy Gamma rays, and analyzed 10 days later, or as otherwise indicated, the control IMR90 cells were mock irradiated. […]
Cell viability was assessed using the Cell Counting Kit-8 (CCK8) (APE, catalog no. k1018). […]

For assay [2], the system named is esophagus of Lmna^G609G/G609G mice. The assay can be described thus: Masson staining of esophagus (lamina propria). The assay is classed as in vivo, mouse. The conditions noted are these: 13 weeks; for aortic adventitia, mean / aortic adventitia: 20 mg kg^–1 i.p. The protocol:
For UPCP injection, 14-day-old Lmna^G609G/G609G mice were injected intraperitoneally with either PBS or UPCP (20 mg kg^–1, every other day) and wild-type mice were injected with PBS. […] Bodyweight and lifespan were monitored after UPCP treatment. The survival rate was analyzed by the Kaplan–Meier method. We only included mice that were of sufficient bodyweight at the start of the experiment, typically at least 80% of the average littermate weight of the same sex and genotype. All animals meeting criteria for inclusion were then divided randomly into three groups according to genotype (Lmna^+/+, Lmna^G609G/G609G-Mock and Lmna^G609G/G609G-UPCP).
For histological analyses, mice of the indicated genotypes were perfused with PBS, then with 4% paraformaldehyde (PFA). Whole organs were incubated in 4% PFA at 4 °C for 16 h. All samples were paraffin embedded and sectioning by Servicebio. Subsequently, the tissues were deparaffinized and rehydrated before hematoxylin-eosin (HE) or Masson staining or immunohistochemistry (IHC). HE staining was performed using an HE Kit (Absin, catalog no. abs9217), and Masson staining was performed using Masson’s Trichrome Stain Kit (Absin, catalog no. abs9347) according to the manufacturer’s instructions. The thickness of the layers or the areas of fibrosis in the tissues were calculated using ImageJ software by a blinded investigator. For IHC, the sections were completed by the Servicebio. The images were acquired by a microscope (Leica DMi8) and analyzed with Leica Application Suite X v.3.6.0.24 (Leica). For BubR1, cytoplasmic staining in cells was scored on the intensity of staining and the proportion of positive cells by a blinded investigator. The intensity of the staining was graded as 0 (negative, no color), 1 (low positive, light yellow), 2 (positive, brown yellow) or 3 (high positive, brown), and the number of positive cells was graded as 0 (<5%), 1 (5–25%), 2 (25–50%), 3 (51–75%) or 4 (>75%). The final score was defined as staining number score multiplied by staining color score. For lamin B1, p21 or IL-6, the proportion of positive cells was used to quantify the expression of protein in tissues by a blinded investigator.

[3] abbreviates: 20 mg kg^–1 i.p. every other day.

With “H-YGRKKRRQRRRYNLRSRTVLCGTCGQPADKASASGSGAQSPQNCSIM-OH (cysteines drawn unpaired) [UPCP, unique progerin C-terminal peptide]”, in assay [1], the “proliferation of DNA damage-induced senescent cells” value is on record as “did not cause DNA damage-induced senescent cells to proliferate”. In addition, in assay [2] (setting [3]), the “fibrosis of lamina propria, esophagus” value is “reduced fibrosis of lamina propria in the esophagus and heart”. In addition, the “thickness of lamina propria, esophagus” value in assay [2] (setting [3]) is reported as “decreased the thickness of the lamina propria in the esophagus”. Besides, the “aortic adventitia, mean” value in assay [2] (sample 1, mean of 3 measurements) came to 9.139 μm; in assay [2] (sample 2, mean of 3 measurements) it was 9.054 μm; in assay [2] (sample 3, mean of 3 measurements), 10.936 μm. For the same substance, the aortic adventitia is on record as 9.452 μm in assay [2] (sample 1, measurement 1); 8.478 μm in assay [2] (sample 1, measurement 2); 9.488 μm in assay [2] (sample 1, measurement 3); 9.392 μm in assay [2] (sample 2, measurement 1); 8.624 μm in assay [2] (sample 2, measurement 2); 9.147 μm in assay [2] (sample 2, measurement 3). Besides, the aortic adventitia amounted to 10.5409 μm in assay [2] (sample 3, measurement 1); 9.16 μm in assay [2] (sample 3, measurement 2); 13.1073 μm in assay [2] (sample 3, measurement 3).

Source of the values: PMC10154249, “Unique progerin C-terminal peptide ameliorates Hutchinson–Gilford progeria syndrome phenotype by rescuing BUBR1” (Nature Aging, 2023).
